# From ChEMBL document CHEMBL4007476, “Chemical synthesis, redox transformation, and identification of sonnerphenolic C, an antioxidant in Acer nikoense” (Bioorg Med Chem Lett, 2017)
# Legend:
# [1] = Antioxidant activity assessed as DPPH radical scavenged per mole of compound after 20 mins; assay type: functional
# Tyrosinase [2] = target: T1, Tyrosinase (Homo sapiens, UniProt P14679); assay: Drug metabolism assessed as tyrosinase (unknown origin)-mediated redox transformation by measuring sonnerphenolic C formation at 10 mM in presence of vitamin C by HPLC analysis; assay type: ADME; conditions: 10000 µM
# T1 sequence (P14679 whole entry): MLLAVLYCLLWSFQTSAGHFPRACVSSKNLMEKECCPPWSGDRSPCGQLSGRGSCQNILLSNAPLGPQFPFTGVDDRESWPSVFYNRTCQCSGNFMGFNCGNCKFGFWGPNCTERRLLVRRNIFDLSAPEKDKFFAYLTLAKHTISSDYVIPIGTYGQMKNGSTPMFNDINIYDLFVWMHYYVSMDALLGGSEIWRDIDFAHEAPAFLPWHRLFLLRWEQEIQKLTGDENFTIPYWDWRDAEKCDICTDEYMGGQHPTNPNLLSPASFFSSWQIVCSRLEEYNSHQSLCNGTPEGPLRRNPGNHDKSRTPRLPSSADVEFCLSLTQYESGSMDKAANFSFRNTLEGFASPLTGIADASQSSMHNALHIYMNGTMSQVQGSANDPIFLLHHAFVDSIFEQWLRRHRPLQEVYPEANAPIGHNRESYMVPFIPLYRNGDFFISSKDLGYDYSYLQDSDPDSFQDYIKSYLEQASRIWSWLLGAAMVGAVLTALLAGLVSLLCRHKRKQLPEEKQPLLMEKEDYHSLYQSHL
# Tyrosinase [3] = target: T1, Tyrosinase; assay: Drug level treated with 10 mM epirhododendrin assessed as tyrosinase (unknown origin)-mediated redox transformation in presence of vitamin C by HPLC analysis; assay type: ADME
Molecule,Activity [1] [mol],Drug metabolism (Tyrosinase [2]),Drug metabolism (Tyrosinase [3])
VITAMIN E,1.86,,
C[C@@H](CCc1ccc(O)cc1)O[C@@H]1O[C@H](CO)[C@@H](O)[C@H](O)[C@H]1O,0,Metabolite_Detected,
C[C@@H](CCc1ccc(O)c(O)c1)O[C@@H]1O[C@H](CO)[C@@H](O)[C@H](O)[C@H]1O,2.23,,Metabolite_Detected
